The test concerns the target CDK7/CycH/MNAT1 (Homo sapiens (Human), UniProt P50613). As to the kind of experiment: Biochemical assay for CDK7 (TR-FRET kinase assay). The settings on record: 60 min pre-incubation, 1 mM ATP; for inhibition at 10 µM: read-out: % inhibition @ 10 μM; for IC50: read-out: IC50. As to the method:
The ability of compounds to inhibit CDK7 kinase activity was tested in a TR-FRET assay using 5 nM of CDK7/CycH/MNAT1 obtained from Invitrogen, USA. Test compounds were pre-incubated with the kinase at room temperature for 60 min. After incubation, substrate mix [100 nM Ultra-light MBP (Perkin Elmer, USA) and 1 mM ATP (Sigma)] was added. The above reaction was stopped by the addition of 40 mM EDTA after 60 minutes of kinase reaction. 1 nM Eu-labelled antiphospho-MBP antibody [Perkin Elmer, USA] was added, mixed well and the fluorescence emission at 615 nm and 665 nm [excitation at 340 nm] was measured. The final DMSO concentration in the assay was 1%. For IC50 determination, appropriate concentrations were made by ⅓^rd serial dilutions of 10 mM DMSO stock solution of test compound. All the fluorescence measurements were made in a Victor 3 Multilabel Counter [Perkin Elmer, USA]. The IC50 was determined by fitting the dose response data to sigmoidal curve fitting equation using GraphPad Prism software V5. To identify compounds that inhibit CDK7 irreversibly, time depended inhibition studies were carried by pre-incubating compound with the enzyme at three time points (20, 60 and 180 min) and carrying out assay as described above.
A general note: In TR-FRET formats the signal depends on donor and acceptor labels being close together.

CDK7/CycH/MNAT1, sequence (P50613 whole entry): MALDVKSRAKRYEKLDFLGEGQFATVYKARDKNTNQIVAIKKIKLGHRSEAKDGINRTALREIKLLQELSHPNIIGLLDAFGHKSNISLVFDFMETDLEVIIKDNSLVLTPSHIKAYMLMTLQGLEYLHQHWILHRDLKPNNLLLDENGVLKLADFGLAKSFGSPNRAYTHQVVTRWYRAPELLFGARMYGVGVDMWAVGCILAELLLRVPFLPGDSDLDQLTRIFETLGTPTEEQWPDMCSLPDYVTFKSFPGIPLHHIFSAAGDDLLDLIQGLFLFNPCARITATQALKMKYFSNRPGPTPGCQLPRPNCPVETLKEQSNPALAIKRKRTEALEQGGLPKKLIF
CDK7/CycH/MNAT1, sequence (P51946 whole entry partner): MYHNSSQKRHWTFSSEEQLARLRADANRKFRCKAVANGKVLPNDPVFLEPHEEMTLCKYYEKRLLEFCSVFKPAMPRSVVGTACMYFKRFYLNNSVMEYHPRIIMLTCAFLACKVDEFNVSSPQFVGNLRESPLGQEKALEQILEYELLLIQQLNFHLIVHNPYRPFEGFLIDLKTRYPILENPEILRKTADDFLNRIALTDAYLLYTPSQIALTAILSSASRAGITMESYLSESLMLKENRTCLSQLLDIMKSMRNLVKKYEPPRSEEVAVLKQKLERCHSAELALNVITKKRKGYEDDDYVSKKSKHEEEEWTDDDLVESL
CDK7/CycH/MNAT1, sequence (P51948 whole entry partner): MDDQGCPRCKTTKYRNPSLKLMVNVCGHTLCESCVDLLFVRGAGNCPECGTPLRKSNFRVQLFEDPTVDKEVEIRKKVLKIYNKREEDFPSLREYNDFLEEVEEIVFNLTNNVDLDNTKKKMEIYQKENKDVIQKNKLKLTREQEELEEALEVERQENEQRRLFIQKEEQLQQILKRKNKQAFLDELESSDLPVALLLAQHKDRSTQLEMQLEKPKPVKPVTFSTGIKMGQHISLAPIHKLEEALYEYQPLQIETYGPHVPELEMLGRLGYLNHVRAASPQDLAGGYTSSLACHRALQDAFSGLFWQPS

The inhibition is the change of the read-out against control, counted positive when it falls. As usually defined, the IC50 is the point on the concentration scale where inhibition reaches its midpoint. For the compound `C=CC(=O)N1CCC1C(=O)Nc1cccc(CNc2nc(NC3CCOCC3)nc3c(C(C)C)cnn23)c1F` (stereo not shown) [Compound 30, 1-acryloyl-N-(2-fluoro-3-(((8-isopropyl-2-((tetrahydro-2H-pyran-4-yl)amino)pyrazolo[1,5-a][1,3,5]triazin-4-yl)amino)methyl)phenyl)azetidine-2-carboxamide], the 50% inhibitory concentration (IC50) is < 300 nM. Further, the inhibition at 10 µM (10 μM compound) was 98%. In the case of `C=CC(=O)N1CCCCC1C(=O)Nc1cccc(CNc2nc(NC3CCOCC3)nc3c(C(C)C)cnn23)c1F` (stereo not shown) [Compound 35, 1-acryloyl-N-(2-fluoro-3-(((8-isopropyl-2-((tetrahydro-2H-pyran-4-yl)amino)pyrazolo[1,5-a][1,3,5]triazin-4-yl)amino)methyl)phenyl)piperidine-2-carboxamide], the IC50 was < 300 nM. Also, for the setting “10 μM compound”, the inhibition at 10 µM was found to be 99%. For `C=CC(=O)N1CCC1C(=O)Nc1ccc(C)c(CNc2nc(NC3CCOCC3)nc3c(C(C)C)cnn23)c1` (stereo not shown) [Compound 27, 1-acryloyl-N-(3-(((8-isopropyl-2-((tetrahydro-2H-pyran-4-yl)amino)pyrazolo[1,5-a][1,3,5]triazin-4-yl)amino)methyl)-4-methylphenyl)azetidine-2-carboxamide] the same measures were < 300 nM and 100%.

With `C=CC(=O)N[C@H]1CC[C@@H](C(=O)Nc2cccc(CNc3nc(NC4CCCC(O)C4)nc4c(C(C)C)cnn34)c2)CC1` (single isomer, unassigned) [Compound 11, 4-acrylamido-N-(3-(((2-((3-hydroxycyclohexyl)amino)-8-isopropylpyrazolo[1,5-a][1,3,5]triazin-4-yl)amino)methyl)phenyl)cyclohexane-1-carboxamide], the IC50 was in the range of 300 to 1000 nM. Moreover, where the note is “10 μM compound”, the “% inhibition @ 10 μM” value stood at 89%.

For `CC(C)c1cnn2c(NCc3ccc(F)c(NC(=O)C4CCCN(C(=O)/C=C/CN(C)C)C4)c3)nc(OC3CCN(C)CC3)nc12` (stereo not shown) [Compound 123, (E)-1-(4-(dimethylamino)but-2-enoyl)-N-(2-fluoro-5-(((8-isopropyl-2-((1-methylpiperidin-4-yl)oxy)pyrazolo[1,5-a][1,3,5]triazin-4-yl)amino)methyl)phenyl)piperidine-3-carboxamide], the IC50 is < 300 nM. Besides, under “10 μM compound”, the inhibition at 10 µM was 96%. For `CC(C)c1cnn2c(NCc3cccc(NC(=O)/C=C/CN4CCC(F)(F)C4)c3)nc(NC3CCOCC3)nc12` [Compound 57, (E)-4-(3,3-difluoropyrrolidin-1-yl)-N-(3-(((8-isopropyl-2-((tetrahydro-2H-pyran-4-yl)amino)pyrazolo[1,5-a][1,3,5]triazin-4-yl)amino)methyl)phenyl)but-2-enamide] the same measures were > 1000 nM and 84%.

Consider `CC(C)c1cnn2c(NCc3cccc(NC(=O)/C=C/CN4CCCC4)c3)nc(NC3CCOCC3)nc12` [Compound 54, (E)-N-(3-(((8-isopropyl-2-((tetrahydro-2H-pyran-4-yl)amino)pyrazolo[1,5-a][1,3,5]triazin-4-yl)amino)methyl)phenyl)-4-(pyrrolidin-1-yl)but-2-enamide], for which the IC50 is < 300 nM. Further, for the setting “10 μM compound”, the inhibition at 10 µM turned out to be 98%. `C=CC(=O)N[C@H]1CC[C@@H](C(=O)Nc2cccc(CNc3nc(NC4CCCC(O)C4)nc4c(C(C)C)cnn34)c2)CC1` (single isomer, unassigned) [Compound 10, 4-acrylamido-N-(3-(((2-((3-hydroxycyclohexyl)amino)-8-isopropylpyrazolo[1,5-a][1,3,5]triazin-4-yl)amino)methyl)phenyl)cyclohexane-1-carboxamide]: the IC50 was in the range of 300 to 1000 nM. In addition, under “10 μM compound”, the inhibition at 10 µM is 89%. For `C=CC(=O)N[C@H]1CC[C@@H](C(=O)Nc2cccc(CNc3nc(NC4CCOCC4)nc4c(C(C)C)cnn34)c2)CC1` [Compound 7, (1,4-cis)-4-acrylamido-N-(3-(((8-isopropyl-2-((tetrahydro-2H-pyran-4-yl)amino)pyrazolo[1,5-a][1,3,5]triazin-4-yl)amino)methyl)phenyl)cyclohexane-1-carboxamide] the same measures were > 1000 nM and 91%. The matching figures for `C=CC(=O)N1CCC1C(=O)Nc1cccc(Nc2nc(NC3CCOCC3)nc3c(C(C)C)cnn23)c1` (stereo not shown) [Compound 86, 1-acryloyl-N-(3-((8-isopropyl-2-((tetrahydro-2H-pyran-4-yl)amino)pyrazolo[1,5-a][1,3,5]triazin-4-yl)amino)phenyl)azetidine-2-carboxamide]: < 300 nM and 99%.

On to `C=CC(=O)N[C@H]1CC[C@@H](C(=O)Nc2cccc(Nc3nc(OC4CCN(C)CC4)nc4c(C(C)C)cnn34)c2)CC1` [Compound 126, (1,4-cis)-4-acrylamido-N-(3-((8-isopropyl-2-((1-methylpiperidin-4-yl)oxy)pyrazolo[1,5-a][1,3,5]triazin-4-yl)amino)phenyl)cyclohexane-1-carboxamide], for which the IC50 was > 1000 nM. As for `CC(C)c1cnn2c(Nc3cccc(C(=O)NC4CCCN(C(=O)/C=C/CN(C)C)C4)c3)nc(OC3CCN(C)CC3)nc12` (stereo not shown) [Compound 133, (E)-N-(1-(4-(dimethylamino)but-2-enoyl)piperidin-3-yl)-3-((8-isopropyl-2-((1-methylpiperidin-4-yl)oxy)pyrazolo[1,5-a][1,3,5]triazin-4-yl)amino)benzamide], the IC50 is < 300 nM. In addition, the inhibition at 10 µM (10 μM compound) was determined as 97%.

With `CCN(CC)C/C=C/C(=O)Nc1cccc(CNc2nc(NC3CCOCC3)nc3c(C(C)C)cnn23)c1` [Compound 50, (E)-4-(diethylamino)-N-(3-(((8-isopropyl-2-((tetrahydro-2H-pyran-4-yl)amino)pyrazolo[1,5-a][1,3,5]triazin-4-yl)amino)methyl)phenyl)but-2-enamide], the IC50 is < 300 nM. Further, under “10 μM compound”, the inhibition at 10 µM amounted to 97%. The matching figures for `CC(C)c1cnn2c(NCc3cc(F)cc(NC(=O)/C=C/CN(C)C)c3)nc(NC3CCOCC3)nc12` [Compound 59, (E)-4-(dimethylamino)-N-(3-fluoro-5-(((8-isopropyl-2-((tetrahydro-2H-pyran-4-yl)amino)pyrazolo[1,5-a][1,3,5]triazin-4-yl)amino)methyl)phenyl)but-2-enamide]: < 300 nM and 98%.

As for `C=CC(=O)N1CCCCC1C(=O)Nc1cc(F)cc(CNc2nc(NC3CCOCC3)nc3c(C(C)C)cnn23)c1` (stereo not shown) [Compound 36, 1-acryloyl-N-(3-fluoro-5-(((8-isopropyl-2-((tetrahydro-2H-pyran-4-yl)amino)pyrazolo[1,5-a][1,3,5]triazin-4-yl)amino)methyl)phenyl)piperidine-2-carboxamide], the IC50 is 300 to 1000 nM. Moreover, the inhibition at 10 µM (10 μM compound) came out at 91%. For `CC(C)c1cnn2c(NCc3cccc(NC(=O)C4COCCN4C(=O)/C=C/CN(C)C)c3)nc(NC3CCOCC3)nc12` (stereo not shown) [Compound 73, (E)-4-(4-(dimethylamino)but-2-enoyl)-N-(3-(((8-isopropyl-2-((tetrahydro-2H-pyran-4-yl)amino)pyrazolo[1,5-a][1,3,5]triazin-4-yl)amino)methyl)phenyl)morpholine-3-carboxamide] the same measures were < 300 nM and 101%.

For the origin of these results see patent US11186576B2, “Pyrazolo[1,5-A][1,3,5]triazine and pyrazolo[1,5-A]pyrimidine derivatives as CDK inhibitors” (Aurigene Discovery Technologies Limited, priority 2015, dated 2021).
